Counter-ions that a name gives are not always drawn.
Experiments:
[1] = target: T1, human cloned CHRM4 receptor (Homo sapiens, UniProt P08173); experiment: CHRM4 Ca++ Flux Assay (M4_CHO cells, agonist mode); assay type: cell-based; settings: for Emax: Percent Activity (PA), read-out: M4 FDSS PA %; for EC50: geometric mean if tested more than once, read-out: M4 FDSS EC50
T1 construct: expressed in transfected cells; host or cells: CHO-K1 (M4_CHO)
T1 sequence (P08173 1-479): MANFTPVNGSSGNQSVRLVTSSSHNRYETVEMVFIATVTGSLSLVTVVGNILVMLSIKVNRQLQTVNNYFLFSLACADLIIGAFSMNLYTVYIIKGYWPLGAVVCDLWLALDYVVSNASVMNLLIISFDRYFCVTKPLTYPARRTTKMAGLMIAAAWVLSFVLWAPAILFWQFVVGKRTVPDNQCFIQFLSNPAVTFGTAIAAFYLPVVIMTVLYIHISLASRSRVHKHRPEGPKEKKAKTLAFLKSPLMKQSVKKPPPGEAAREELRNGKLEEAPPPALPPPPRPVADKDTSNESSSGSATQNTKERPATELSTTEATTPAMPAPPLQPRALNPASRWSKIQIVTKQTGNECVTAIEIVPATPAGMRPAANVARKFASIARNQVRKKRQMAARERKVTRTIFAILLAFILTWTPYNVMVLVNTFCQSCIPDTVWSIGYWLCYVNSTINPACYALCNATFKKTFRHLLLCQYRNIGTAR
How it was run: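 Agonist-mode calcium flux in an M4-expressing CHO-K1 line: compounds were dosed at 11 points in triplicate and fluorescence was tracked for 3 min. Cells were preloaded with Ca++ dye and kept in −Ca/−Mg HBSS with 20 μM ATP for 60 min. Efficacy is scaled to carbachol EC100; EC50s come from four-parameter regression, geometric mean across runs.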

[2] = target: T2, human cloned CHRM3 receptor (Homo sapiens, UniProt P20309); experiment: CHRM3 Ca++ Flux Assay (M3_CHO cells, agonist mode); assay type: cell-based; settings: for Emax: Percent Activity (PA) measured to EC100 of Carbachol, read-out: M3 FDSS PA %; for EC50: agonist mode, geometric mean if tested more than once, read-out: M3 FDSS EC50
T2 construct: expressed in transfected cells; host or cells: CHO-K1 (M3_CHO)
T2 sequence (P20309 whole entry): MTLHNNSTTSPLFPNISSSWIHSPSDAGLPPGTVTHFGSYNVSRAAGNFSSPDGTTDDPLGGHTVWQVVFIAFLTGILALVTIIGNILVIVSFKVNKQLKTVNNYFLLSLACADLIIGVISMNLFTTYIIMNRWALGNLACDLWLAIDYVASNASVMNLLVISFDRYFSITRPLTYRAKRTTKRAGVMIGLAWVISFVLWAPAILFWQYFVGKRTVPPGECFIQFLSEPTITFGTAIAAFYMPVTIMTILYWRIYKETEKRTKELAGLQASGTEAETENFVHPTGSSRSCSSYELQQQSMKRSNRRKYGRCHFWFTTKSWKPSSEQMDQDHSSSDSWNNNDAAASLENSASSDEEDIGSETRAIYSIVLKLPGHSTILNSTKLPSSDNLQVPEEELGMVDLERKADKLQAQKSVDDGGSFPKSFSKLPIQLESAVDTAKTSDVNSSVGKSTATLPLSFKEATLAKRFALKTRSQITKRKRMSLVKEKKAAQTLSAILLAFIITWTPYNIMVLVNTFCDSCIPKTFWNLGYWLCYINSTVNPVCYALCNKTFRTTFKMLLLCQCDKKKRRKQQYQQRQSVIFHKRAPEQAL
How it was run: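 Agonist-mode calcium mobilisation: compounds, 11 concentrations in triplicate, applied to stable M3_CHO or M5_CHO cells loaded with Ca++ dye, fluorescence followed 3 min. Efficacy expressed against carbachol EC100; EC curves by four-parameter nonlinear regression, geometric mean across independent runs.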

Row | SMILES | Emax [1] | EC50 [1] | Emax [2] | EC50 [2]
1 | c1ccc(C2CCN([C@@H]3COC4(C3)CN(c3ncco3)C4)CC2)c(C2CCOCC2)c1 [Example 4V, (S)-2-(oxazol-2-yl)-7-(4-(2-(tetrahydro-2H-pyran-4-yl)phenyl)piperidin-1-yl)-5-oxa-2-azaspiro[3.4]octane] | 82% | 46 nM | 0% | > 25000 nM
2 | Fc1ccc(C2CCOCC2)c(C2CCN([C@@H]3COC4(C3)CN(c3ncco3)C4)CC2)c1 [Example 4W, (S)-7-(4-(5-fluoro-2-(tetrahydro-2H-pyran-4-yl)phenyl)piperidin-1-yl)-2-(oxazol-2-yl)-5-oxa-2-azaspiro[3.4]octane] | 75% | 21 nM | 0% | > 25000 nM
3 | COc1ccccc1C1CCN([C@@H]2COC3(C2)CN(c2ncns2)C3)CC1 [Example 5B, (S)-7-(4-(2-methoxyphenyl)piperidin-1-yl)-2-(1,2,4-thiadiazol-5-yl)-5-oxa-2-azaspiro[3.4]octane] | 59% | 87 nM | 0% | > 25000 nM
4 | COCCOc1ccc(F)cc1C1CCN([C@@H]2COC3(C2)CN(c2ncns2)C3)CC1 [Example 5D, (S)-7-(4-(5-fluoro-2-(2-methoxyethoxy)phenyl)piperidin-1-yl)-2-(1,2,4-thiadiazol-5-yl)-5-oxa-2-azaspiro[3.4]octane] | 46% | 128 nM | 0% | > 25000 nM
5 | COc1cc(F)ccc1C1CCN([C@@H]2COC3(C2)CN(c2ncns2)C3)CC1 [Example 5E, (S)-7-(4-(4-fluoro-2-methoxyphenyl)piperidin-1-yl)-2-(1,2,4-thiadiazol-5-yl)-5-oxa-2-azaspiro[3.4]octane] | 39% | 345 nM | 0% | > 25000 nM
6 | Cc1nc(COc2ccccc2C2CCN([C@@H]3COC4(C3)CN(c3nncs3)C4)CC2)no1 [Example 5F, (S)-7-(4-(2-((5-methyl-1,2,4-oxadiazol-3-yl)methoxy)phenyl)piperidin-1-yl)-2-(1,3,4-thiadiazol-2-yl)-5-oxa-2-azaspiro[3.4]octane] | 90% | < 0.4 nM | 15% | 11800 nM
7 | Fc1ccc(O[C@@H]2CCOC2)c(C2CCN([C@@H]3COC4(C3)CN(c3nncs3)C4)CC2)c1 [Example 5H, (S)-7-(4-(5-fluoro-2-(((R)-tetrahydrofuran-3-yl)oxy)phenyl)piperidin-1-yl)-2-(1,3,4-thiadiazol-2-yl)-5-oxa-2-azaspiro[3.4]octane] | 99% | 15 nM | 0% | > 25000 nM
8 | Fc1ccc(OC[C@@H]2CCOC2)c(C2CCN([C@@H]3COC4(C3)CN(c3nncs3)C4)CC2)c1 [Example 5I, (S)-7-(4-(5-fluoro-2-(((R)-tetrahydrofuran-3-yl)methoxy)phenyl)piperidin-1-yl)-2-(1,3,4-thiadiazol-2-yl)-5-oxa-2-azaspiro[3.4]octane] | 71% | 20 nM | 0% | > 25000 nM
9 | Fc1ccc(OC2CCOCC2)c(C2CCN([C@@H]3COC4(C3)CN(c3nncs3)C4)CC2)c1 [Example 5J, (S)-7-(4-(5-fluoro-2-((tetrahydro-2H-pyran-4-yl)oxy)phenyl)piperidin-1-yl)-2-(1,3,4-thiadiazol-2-yl)-5-oxa-2-azaspiro[3.4]octane] | 92% | 29 nM | 0% | > 25000 nM
10 | Fc1ccc(OC[C@@H]2COCCO2)c(C2CCN([C@@H]3COC4(C3)CN(c3nncs3)C4)CC2)c1 [Example 5L, (S)-7-(4-(2-(((S)-1,4-dioxan-2-yl)methoxy)-5-fluorophenyl)piperidin-1-yl)-2-(1,3,4-thiadiazol-2-yl)-5-oxa-2-azaspiro[3.4]octane] | 79% | 38 nM | 0% | > 25000 nM
11 | COC(C)(C)CCOc1ccc(F)cc1C1CCN([C@@H]2COC3(C2)CN(c2nncs2)C3)CC1 [Example 5N, (S)-7-(4-(5-fluoro-2-(3-methoxy-3-methylbutoxy)phenyl)piperidin-1-yl)-2-(1,3,4-thiadiazol-2-yl)-5-oxa-2-azaspiro[3.4]octane] | 61% | 68 nM | 0% | > 25000 nM
12 | Fc1ccc(O[C@H]2CCOC2)c(C2CCN([C@@H]3COC4(C3)CN(c3nncs3)C4)CC2)c1 [Example 5O, (S)-7-(4-(5-fluoro-2-(((S)-tetrahydrofuran-3-yl)oxy)phenyl)piperidin-1-yl)-2-(1,3,4-thiadiazol-2-yl)-5-oxa-2-azaspiro[3.4]octane] | 74% | 71 nM | 0% | > 25000 nM
13 | CC(C)(O)CCOc1ccc(F)cc1C1CCN([C@@H]2COC3(C2)CN(c2nncs2)C3)CC1 [Example 5P, (S)-4-(2-(1-(2-(1,3,4-thiadiazol-2-yl)-5-oxa-2-azaspiro[3.4]octan-7-yl)piperidin-4-yl)-4-fluorophenoxy)-2-methylbutan-2-ol] | 58% | 86 nM | 0% | > 25000 nM

Further compounds by falling EC50 [1], results first:

Row | Emax [1] | EC50 [1] | Emax [2] | EC50 [2] | SMILES
14 | 66% | 110 nM | 0% | > 25000 nM | CC(C)(O)COc1ccc(F)cc1C1CCN([C@@H]2COC3(C2)CN(c2ncns2)C3)CC1 [Example 5C, (S)-1-(2-(1-(2-(1,2,4-thiadiazol-5-yl)-5-oxa-2-azaspiro[3.4]octan-7-yl)piperidin-4-yl)-4-fluorophenoxy)-2-methylpropan-2-ol]
15 | 83% | 92 nM | 0% | > 25000 nM | c1ccc(C2CCN([C@@H]3COC4(C3)CN(c3nncs3)C4)CC2)c(OC2COC2)c1 [Example 5Q, (S)-7-(4-(2-(oxetan-3-yloxy)phenyl)piperidin-1-yl)-2-(1,3,4-thiadiazol-2-yl)-5-oxa-2-azaspiro[3.4]octane formate salt]
16 | 60% | 74 nM | 0% | > 25000 nM | COc1ccc(Cl)cc1C1CCN([C@@H]2COC3(C2)CN(c2ncns2)C3)CC1 [Example 5A, (S)-7-(4-(5-chloro-2-methoxyphenyl)piperidin-1-yl)-2-(1,2,4-thiadiazol-5-yl)-5-oxa-2-azaspiro[3.4]octane]
17 | 73% | 58 nM | 0% | > 25000 nM | Fc1cc(O[C@@H]2CCOC2)c(C2CCN([C@@H]3COC4(C3)CN(c3nncs3)C4)CC2)cc1F [Example 5M, (S)-7-(4-(4,5-difluoro-2-(((R)-tetrahydrofuran-3-yl)oxy)phenyl)piperidin-1-yl)-2-(1,3,4-thiadiazol-2-yl)-5-oxa-2-azaspiro[3.4]octane]
18 | 87% | 31 nM | 0% | > 25000 nM | Fc1ccc(OC[C@H]2COCCO2)c(C2CCN([C@@H]3COC4(C3)CN(c3nncs3)C4)CC2)c1 [Example 5K, (S)-7-(4-(2-(((R)-1,4-dioxan-2-yl)methoxy)-5-fluorophenyl)piperidin-1-yl)-2-(1,3,4-thiadiazol-2-yl)-5-oxa-2-azaspiro[3.4]octane]
19 | 74% | 21 nM | 0% | > 25000 nM | Fc1ccc(C2CCN([C@@H]3COC4(C3)CN(c3ncco3)C4)CC2)c(OC2COC2)c1 [Example 4S, (S)-7-(4-(4-fluoro-2-(oxetan-3-yloxy)phenyl)piperidin-1-yl)-2-(oxazol-2-yl)-5-oxa-2-azaspiro[3.4]octane]
20 | 76% | 13 nM | 0% | > 25000 nM | Fc1ccc(OC2COC2)c(C2CCN([C@@H]3COC4(C3)CN(c3nncs3)C4)CC2)c1 [Example 5G, (S)-7-(4-(5-fluoro-2-(oxetan-3-yloxy)phenyl)piperidin-1-yl)-2-(1,3,4-thiadiazol-2-yl)-5-oxa-2-azaspiro[3.4]octane]
21 | 60% | 11 nM | 0% | > 25000 nM | Fc1cc(OC2COC2)c(C2CCN([C@@H]3COC4(C3)CN(c3ncco3)C4)CC2)cc1F [Example 4Q, (S)-7-(4-(4,5-difluoro-2-(oxetan-3-yloxy)phenyl)piperidin-1-yl)-2-(oxazol-2-yl)-5-oxa-2-azaspiro[3.4]octane]
22 | 70% | 3 nM | 0% | > 25000 nM | c1ccc(C2CCN([C@@H]3COC4(C3)CN(c3ncco3)C4)CC2)c(-c2cncnc2)c1 [Example 4R, (S)-2-(oxazol-2-yl)-7-(4-(2-(pyrimidin-5-yl)phenyl)piperidin-1-yl)-5-oxa-2-azaspiro[3.4]octane]

From US11485742B2, “2-azaspiro[3.4]octane derivatives as M4 agonists” (NOVARTIS AG, priority 2019, dated 2022)
